# From patent publication US10849875B2, “Cancer specific lipid targeted peptidomimetics” (University of Houston System, priority 2015, dated 2020)
# Positions of bridges follow the written chain, without caps; N, C: chain ends. Non-standard residues stand in square brackets, D forms with d. Residues, ends and D or L forms follow the SMILES beside them. Chains are numbered I, II in the order given. Gly(N-piperonyl) = O=C(O)CNCc1ccc2c(c1)OCO2; N(4-MeOBn)Gly = COc1ccc(CNCC(=O)O)cc1; Nrpe = C[C@@H](NCC(=O)O)c1ccccc1; Nlys = NCCCCNCC(=O)O
# Experiments:
# [1] = Lipid ELISA-like binding assay
# Description: The direct binding of PPS1 to PS was tested. An ELISA-like assay was used. Two main lipids typically found on cell membrane, PS and PC, were immobilized separately on a 96-well plates and biotinylated PPS1 was incubated at an increasing concentration gradient. Presence of bound PPS1 was detected by HRP-streptavidin after appropriate blocking and washing. (FIG. 11A), PC was selected as the control because it is the most abundant neutral phospholipid found in the outer leaflet of the normal cell membranes. […] This indicates […] has specificity to PS over PC.
# ELISA binding assay on PS and PC: PS and PC (Avanti Polar Lipids) were dissolved in hexane at 10 μg/ml concentration and added to Immulon 1B “U” bottom microtiter plates (Thermo) 50 μl/well. hexane was allowed to evaporate at room temp (in the hood). Plates were blocked by adding 200 μl 1% BSA in PBS to each well and incubated for 1 hour. Each well was washed with 3× w/200 μl PBS. Serial dilutions (0.5 μM to 0.0078 μM) of biotinylated PPS1 and PPS2 were dissolved in blocking buffer (100 μl/well) and incubated for 1 hr on shaker. Washed 5× w/200 μl PBS. Added 100 μl streptavidin-HRP (1:2000 in blocking buffer) to each well and incubated for 30 min. […] Stopped the reaction with 100 μl 0.18M H2SO4 Read OD at 490 nm.
# Since PS is selectively exposed on the surface of HCC4017 cells compared with HBEC30KT, it was examined if PPS1D1 (FIG. 9B and FIG. 72) binds to PS directly. In an ELISA-like assay, PS and PC were coated separately on 96-well plates, biotinylated PPS1D1 (FIG. 65) was introduced in a concentration gradient and the bound compound was detected using standard streptavidin-HRP system.
# Lipids (Avanti Polar Lipids) were dissolved in hexane at 10 μg/ml and coated on to Immulon 1B “U” bottom microtiter plates (ThermoFisher, MA). […] Plates were washed with 5× PBS and binding was detected with streptavidin-HRP (1:2000 in blocking buffer) followed by 100 μl OPD (Sigma-Aldrich). The reaction was stopped with 100 μl 0.18M H2SO4 and absorbance was read at 490 nm using the spectrophotometer (Spectramax i3, Molecular Devices, CA).
# HBEC3kt cells = test: MTS cell viability assay; format: cell-based, human; settings: serial dilutions
# Description: After confirming the binding and specificity of the PPS1 on HCC4017 lung cancer cells, whether this compound has any biological effects on HCC4017 lung cancer cells was assayed. The gold standard cell viability (MTS) assay was used. HCC4017 cells and HBEC30kt and HBEC3kt cells were grown in 96 well plates on day 1, then treated by serial dilution of PPS1 and control compound C462 on day 2, and the viable cell count was measured using MTS reagent on day 3. […] On one of the repetitive experiments of this assay, Cystinylated-PPS1 compound was included (FIG. 6A). This was the intermediate compound used to attach the FITC-malemide for binding assays described previously. […] The only difference between this Cystinylated-PPS1 and the original PPS1 compound was just a single cysteine amino acid at the C-terminal. […]
# A homo-dimeric version of PPS1 was synthesized. […] The resulting dimeric version of the PPS1 compound, PPS1D1 (FIG. 6C), and the analogous dimeric versions of scrambled PC2, PC2D1 (FIG. 6E), and control compound C462, PC462D1 (FIG. 82), were then evaluated for activity. […] As described above, HCC4017 cells and HBEC30kt and HBEC3kt cells were grown in 96 well plates on day 1, treated serial dilutions of PPS1, PPS1D1, C462 and C462D1 on day 2, and viable cell count was measured using MTS reagent on day 3. […]
# HCC4017 xenografts = test: Tumor burden effect on HCC4017 xenografts; format: in vivo, mice; settings: initial data, heterogeneous tumors
# Description: The actual tumor burden effects of PPS1D1 on HCC4017 xenografts were studied. The study was planned with 4 groups. […] It took a long time to grow and created a very heterogeneous xenograft population. PPS1D1 treatment was performed, but due to the high heterogeneity of the tumors, most of the mice in every group had to be sacrificed as they reached the maximum allowed limits.
structure (smiles),measurement,setting,value
COc1ccc(CN(CC(=O)N(CCCCN)CC(=O)N[C@@H](CCCCN)C(=O)N[C@H](CCCCN)C(=O)N[C@@H](CCSC)C(=O)NCCCC[C@H](NC(=O)[C@H](CCSC)NC(=O)[C@@H](CCCCN)NC(=O)[C@H](CCCCN)NC(=O)CN(CCCCN)C(=O)CN(Cc2ccc(OC)cc2)C(=O)CN(C(=O)CN(Cc2ccc3c(c2)OCO3)C(=O)CN[C@H](C)c2ccccc2)[C@H](C)c2ccccc2)C(N)=O)C(=O)CN(C(=O)CN(Cc2ccc3c(c2)OCO3)C(=O)CN[C@H](C)c2ccccc2)[C@H](C)c2ccccc2)cc1 [PPS1D1] (I: H-[Nrpe][Gly(N-piperonyl)][Nrpe][N(4-MeOBn)Gly][Nlys]K[dK]MK-NH2 / II: H-[Nrpe][Gly(N-piperonyl)][Nrpe][N(4-MeOBn)Gly][Nlys]K[dK]M; amide I:9-II:C; N-terminus assumed),binding to PC,[1]; PC-coated ELISA plates,very high specificity over the PC
same,binding to PS,[1]; PS-coated ELISA plates,strongest affinity
same,Kd,"[1]; PS-coated ELISA plates, biotinylated compound, streptavidin-HRP",~55 nM
same,activity on normal HBEC3kt cells,HBEC3kt cells,did not have any activity
same,tumor growth,HCC4017 xenografts,capable of reducing the tumor growth
